The nature of test [1]: Antiinflammatory activity against Wistar rat erythrocytes assessed as inhibition of heat-induced hemolysis after 15 mins by membrane stabilizing activity assay. It counts as functional, cell-based. Conditions: erythrocyte.
Test [2] deals with Mus musculus. Description: Antinociceptive activity against CD-1 mouse assessed as licking of hind paw or jumping at 100 mg/kg, po after 90 mins. Format: functional. The note with it: CD-1, 1.5 h.
Test [3] relates to Mus musculus. Description: Anti-arthritic activity in po dosed CD-1 mouse assessed as inhibition of carrageenan-kaolin-induced arthritis at treated for 8 days relative to vehicle treated control. Format: functional, organism-based. The note with it: TDE = time-dependent effect.
The subject of test [4] is Mus musculus. The test can be described thus: Antiinflammatory activity in CD-1 mouse ear edema model assessed as reduction in TPA-induced edema size at 200 mg/kg, po administered 30 mins prior to TPA-challenge for every 48 hrs for 10 days relative to vehicle treated control. It counts as functional. Conditions: CD-1, Ear.
Test [5] concerns Mus musculus. The test can be described thus: Antiinflammatory activity in CD-1 mouse ear edema model assessed as reduction in TPA-induced edema size at 2 mg/ear, topically administered 30 mins prior to TPA-challenge measured after 6 hrs relative to control. Format: functional.
Test [6] relates to Mus musculus. The test can be described thus: Anti-arthritic activity against carrageenan-kaolin-induced arthritis CD-1 mouse model assessed as decrease in spleen index at 200 mg/kg, po for 8 days relative to vehicle treated control. It counts as functional. The note with it: CD-1, Spleen, 192 h.
In test [7] the test system is Mus musculus. The test can be described thus: Anti-arthritic activity in CD-1 mouse assessed as inhibition of carrageenan-kaolin-induced arthritis at 200 mg/kg, po for 8 days relative to vehicle treated control. The note with it: CD-1, 192 h. Format: functional.
The subject of test [8] is Mus musculus. Description: Antiinflammatory activity against carrageenan-kaolin-induced arthritis CD-1 mouse model assessed as decrease in NO level in serum at 200 mg/kg, po for 8 days relative to vehicle treated control. Format: functional. Conditions: CD-1, Serum, 192 h.
Test [9] relates to Mus musculus. Description: Antiinflammatory activity against carrageenan-kaolin-induced arthritis CD-1 mouse model assessed as decrease in PGE2 level in serum at 200 mg/kg, po for 8 days relative to vehicle treated control. It counts as functional. Conditions: CD-1, Serum, 192 h.
The subject of test [10] is Mus musculus. The test can be described thus: Antinociceptive activity in CD-1 mouse assessed as licking time during phase 1 at 50 to 200 mg/kg, po administered 1 hr prior to formalin-challenge. Format: functional, organism-based.
The subject of test [11] is Mus musculus. Description: Anti-arthritic activity against carrageenan-kaolin-induced arthritis CD-1 mouse model assessed as decrease in spleen index at 1 mg/kg, po for 8 days relative to vehicle treated control. Format: functional. The note with it: CD-1, Spleen, 192 h.
Test [12] concerns Mus musculus. Description: Anti-arthritic activity in CD-1 mouse assessed as inhibition of carrageenan-kaolin-induced arthritis at 1 mg/kg, po for 8 days relative to vehicle treated control. Conditions: CD-1, 192 h. Format: functional.
The subject of test [13] is Mus musculus. The test can be described thus: Antiinflammatory activity against carrageenan-kaolin-induced arthritis CD-1 mouse model assessed as decrease in NO level in serum at 1 mg/kg, po for 8 days relative to vehicle treated control. Format: functional. Conditions: CD-1, Serum, 192 h.
For test [14], the system named is Mus musculus. Description: Antiinflammatory activity against carrageenan-kaolin-induced arthritis CD-1 mouse model assessed as decrease in PGE2 level in serum at 1 mg/kg, po for 8 days relative to vehicle treated control. Format: functional. The note with it: CD-1, Serum, 192 h.
Test [15] deals with Mus musculus. Description: Anti-arthritic activity against carrageenan-kaolin-induced arthritis CD-1 mouse model assessed as decrease in TNF-alpha level in serum at 1 mg/kg, po for 8 days relative to vehicle treated control. It counts as functional.
The subject of test [16] is Mus musculus. The test can be described thus: Anti-arthritic activity against carrageenan-kaolin-induced arthritis CD-1 mouse model assessed as decrease in IL-1beta level in serum at 1 mg/kg, po for 8 days relative to vehicle treated control. Format: functional.
Test [17] relates to Mus musculus. The test can be described thus: Anti-arthritic activity against carrageenan-kaolin-induced arthritis CD-1 mouse model assessed as decrease in IL-6 level in serum at 1 mg/kg, po for 8 days relative to vehicle treated control. Format: functional.
In test [18] the test system is Mus musculus. Description: Anti-arthritic activity against carrageenan-kaolin-induced arthritis CD-1 mouse model assessed as decrease in IL-1beta level in serum at 200 mg/kg, po for 8 days relative to vehicle treated control. Format: functional.
For test [19], the system named is Mus musculus. The test can be described thus: Anti-arthritic activity against carrageenan-kaolin-induced arthritis CD-1 mouse model assessed as decrease in IL-6 level in serum at 200 mg/kg, po for 8 days relative to vehicle treated control. It counts as functional.
Test [20] deals with Mus musculus. The test can be described thus: Anti-arthritic activity against carrageenan-kaolin-induced arthritis CD-1 mouse model assessed as decrease in TNF-alpha level in serum at 200 mg/kg, po for 8 days relative to vehicle treated control. It counts as functional.
Test [21] deals with Mus musculus. Description: Antiinflammatory activity in po dosed CD-1 mouse ear edema model assessed as reduction in TPA-induced edema size administered 30 mins prior to TPA-challenge for every 48 hrs for 10 days relative to vehicle treated control. It counts as functional, organism-based.
Test [22] concerns Mus musculus. The test can be described thus: Antiinflammatory activity in CD-1 mouse ear edema model assessed as reduction in TPA-induced edema size at 8 mg/kg, po administered 30 mins prior to TPA-challenge for every 48 hrs for 10 days relative to vehicle treated control. Format: functional. The note with it: CD-1, Ear.

From ChEMBL document CHEMBL3400067, “Synthesis, antinociceptive and anti-inflammatory effects of porphyrins” (Bioorg Med Chem, 2015) come the findings set out here.

Usually EC50 stands for the concentration giving half of the maximal effect. The inhibition in vivo is the share of the control response that was lost under treatment.

Active and inactive are the calls of the source. The rule behind the calls is not given here.

As for `COc1ccc2cc([C@H](C)C(=O)O)ccc2c1` [NAPROXEN], the 50% effective concentration (EC50) in test [1] was 756 µM. In addition, the inhibition in vivo at 100 mg/kg in the test with Mus musculus [2] turned out to be 36%.

Regarding `Fc1ccc(-c2c3nc(c(-c4ccc(F)cc4)c4ccc([nH]4)c(-c4ccc(F)cc4)c4nc(c(-c5ccc(F)cc5)c5ccc2[nH]5)C=C4)C=C3)cc1`, the Activity result in the test on Mus musculus [3] is “tde”. Moreover, the inhibition in vivo at 200 mg/kg worked out at 36% in the test with Mus musculus [4]; 20% in the test on Mus musculus [6]; 30% in the test with Mus musculus [7]; 44% with Mus musculus [8]; 41% in the test with Mus musculus [9]. In [1], the EC50 came to 395 µM. Besides, in the test with Mus musculus [5], the “inhibition (INH)” value was found to be 38%. For the same compound, the inhibition in vivo at 100 mg/kg in the test with Mus musculus [2] turned out to be 20%. Besides, the outcome with Mus musculus [10] was Active.

With `CN(Cc1cnc2nc(N)nc(N)c2n1)c1ccc(C(=O)N[C@@H](CCC(=O)O)C(=O)O)cc1` [METHOTREXATE], the Activity entry in the test on Mus musculus [3] was “tde”. For the same compound, the inhibition in vivo at 1 mg/kg with Mus musculus [11] worked out at 38%; with Mus musculus [12], 49%; in the test on Mus musculus [13] it was 76%; in the test with Mus musculus [14], 66%. In addition, the entries for the “fold change (FC)” value in the test with Mus musculus [15], with Mus musculus [16] and in the test with Mus musculus [17] were 2.1, 2 and 2.8, respectively.

On to `Brc1ccc(-c2c3nc(c(-c4ccc(Br)cc4)c4ccc([nH]4)c(-c4ccc(Br)cc4)c4nc(c(-c5ccc(Br)cc5)c5ccc2[nH]5)C=C4)C=C3)cc1`, for which the “fold change (FC)” value is 1.6 in the test on Mus musculus [18], 1.3 in the test with Mus musculus [19] and 1.1 in the test on Mus musculus [20]. Moreover, in the test on Mus musculus [3], the Activity result was “tde”. For the same compound, the inhibition in vivo at 200 mg/kg worked out at 23% in the test on Mus musculus [4]; 17% in the test on Mus musculus [6]; 27% with Mus musculus [7]; 36% in the test with Mus musculus [8]; 32% in the test on Mus musculus [9]. Besides, the 50% effective concentration (EC50) in test [1] is 342 µM. The “inhibition (INH)” value with Mus musculus [5] was determined as 67%. Moreover, the inhibition in vivo at 100 mg/kg in the test with Mus musculus [2] came out at 32%. For the same compound, the outcome in the test on Mus musculus [10] was Active.

As to `COc1ccc2c(c1)c(CC(=O)O)c(C)n2C(=O)c1ccc(Cl)cc1` [INDOMETHACIN], in the test with Mus musculus [5], the “inhibition (INH)” value was 76%. The inhibition entry with Mus musculus [21] is “Dose-dependent effect”. Besides, the inhibition in vivo at 8 mg/kg in the test on Mus musculus [22] came out at 55%.
